Results from patent US6949648B2, “Condensed pyrazole derivatives, process for producing the same and use thereof” (Takeda Pharmaceutical Company Limited, priority 2000, dated 2005).
Counter-ions that a name gives are not always drawn.

SMILES	melting point
Cc1cccc2[nH]c3c(c(C)nn3-c3ccccn3)c(=O)c12 [Example 2-31, 3,5-Dimethyl-1-(2-pyridinyl)-1,9-dihydro-4H-pyrazolo[3,4-b]quinolin-4-one]	183 to 186 °C
Cc1nn(-c2ccccn2)c2ncc(C(=O)NC3CCCCC3)c(O)c12 [Example 1-8, N-Cyclohexyl-4-hydroxy-3-methyl-1-(2-pyridinyl)-1H-pyrazolo[3,4-b]pyridine-5-carboxamide]	> 300 °C
CCOC(=O)c1cnc2c(cnn2-c2ccccn2)c1O [Example 1-6, Ethyl 4-hydroxy-1-(2-pyridinyl)-1H-pyrazolo[3,4-b]pyridine-5-carboxylate]	195 to 197 °C
Cc1nn(-c2ccccn2)c2nc3ncccc3c(Cl)c12 [Example 2-196, 4-Chloro-3-methyl-1-(2-pyridinyl)-1H-pyrazolo[3,4-b][1, 8]naphthyridine]	204 to 205 °C
Cc1nn(-c2ccccn2)c2[nH]c3ccsc3c(=O)c12 [Example 2-156, 3-Methyl-1-(2-pyridinyl)-1,8-dihydro-4H-pyrazolo[3,4-b]thieno[2,3-e]pyridin-4-one]	228 to 229 °C
Cc1nn(-c2ccccn2)c2[nH]c3ccc(Cl)cc3c(=O)c12 [Example 2-72, 6-Chloro-3-methyl-1-(2-pyridinyl)-1,9-dihydro-4H-pyrazolo[3,4-b]quinolin-4-one]	254 to 255 °C
Cc1nc2c(c(C)nn2-c2ccccn2)c(O)c1Cc1ccccc1 [Example 1-20, 5-Benzyl-3,6-dimethyl-1-(2-pyridinyl)-1H-pyrazolo[3,4-b]pyridin-4-ol]	181 to 182 °C
Cc1nn(-c2ccncc2)c2nc3ccccc3c(Cl)c12 [Example 2-140, 4-Chloro-3-methyl-1-(4-pyridinyl)-1H-pyrazolo[3,4-b]quinoline]	165 to 168 °C
NC(=O)Cc1nn(-c2ccccn2)c2[nH]c3ccccc3c(=O)c12 [Example 2-178, 2-[4-Oxo-1-(2-pyridinyl)-4,9-dihydro-1H-pyrazolo[3,4-b]quinolin-3-yl]acetamide]	302 to 305 °C
Cc1nn(-c2ccccn2)c2[nH]c3ccc(N(C)C)cc3c(=O)c12 [Example 2-56, 6-Dimethylamino-3-methyl-1-(2-pyridinyl)-1,9-dihydro-4H-pyrazolo[3,4-b]quinolin-4-one]	171 to 173 °C
Cc1nn(-c2ccccn2)c2nc3cc([N+](=O)[O-])ccc3c(Cl)c12 [Example 2-57, 4-Chloro-3-methyl-7-nitro-1-(2-pyridinyl)-1H-pyrazolo[3,4-b]quinoline]	226 to 227 °C
Cc1nn(-c2ccccn2)c2nc3cc(F)c(F)cc3c(OC(C)C)c12 [Example 2-95, 6,7-Difluoro-4-isopropoxy-3-methyl-1-(2-pyridinyl)-1H-pyrazolo[3,4-b]quinoline]	159 to 160 °C
Cc1nn(-c2cccnc2)c2nc3cc(F)c(F)cc3c(Cl)c12 [Example 2-202, 4-Chloro-6,7-difluoro-3-methyl-1-(3-pyridinyl)-1H-pyrazolo[3,4-b]quinoline]	192 to 194 °C
Cc1nn(-c2ccccn2)c2nc3cc(Cl)c(F)cc3c(Cl)c12 [Example 2-96, 4,7-Dichloro-6-fluoro-3-methyl-1-(2-pyridinyl)-1H-pyrazolo[3,4-b]quinoline]	214 to 215 °C
Oc1ccnc2c1cnn2-c1ccccn1 [Example 1-7, 1-(2-Pyridinyl)-1H-pyrazolo[3,4-b]pyridin-4-ol]	192 to 194 °C
Cc1nn(Cc2ccncc2)c2[nH]c3ccccc3c(=O)c12 [Example 2-192, 3-Methyl-1-(4-pyridinylmethyl)-1,9-dihydro-4H-pyrazolo[3,4-b]quinolin-4-one]	277 to 280 °C
CCCSc1c2ccccc2nc2c1c(C)nn2-c1ccccn1 [Example 2-27, 3-Methyl-4-(propylsulfanyl)-1-(2-pyridinyl)-1H-pyrazolo[3,4-b]quinoline]	91 to 93 °C
Cc1nn(-c2ccccn2)c2[nH]c3cc([N+](=O)[O-])ccc3c(=O)c12 [Example 2-58, 3-Methyl-7-nitro-1-(2-pyridinyl)-1,9-dihydro-4H-pyrazolo[3,4-b]quinolin-4-one]	> 300 °C
CCCOc1c2cc(F)c(F)cc2nc2c1c(C)nn2-c1ccccn1 [Example 2-94, 6,7-Difluoro-3-methyl-4-propoxy-1-(2-pyridinyl)-1H-pyrazolo[3,4-b]quinoline]	162 to 163 °C
Fc1ccc2nc3c(cnn3-c3ccccn3)c(Cl)c2c1 [Example 2-164, 4-Chloro-6-fluoro-1-(2-pyridinyl)-1H-pyrazolo[3,4-b]quinoline]	176 to 179 °C
Cc1nn(-c2ccccn2)c2[nH]c3ccc([S+](C)[O-])cc3c(=O)c12 (centres unmarked) [Example 2-51, 3-Methyl-6-(methylsulfinyl)-1-(2-pyridinyl)-1,9-dihydro-4H-pyrazolo[3,4-b]quinolin-4-one]	268 to 269 °C
Clc1ccc2nc3c(cnn3-c3ccccn3)c(Cl)c2c1 [Example 2-160, 4,6-Dichloro-1-(2-pyridinyl)-1H-pyrazolo[3,4-b]quinoline]	175 to 176 °C
Cc1nn(-c2ccccn2)c2[nH]c3ccc(C(=O)O)cc3c(=O)c12 [Example 2-65, 3-Methyl-4-oxo-1-(2-pyridinyl)-4,9-dihydro-1H-pyrazolo[3,4-b]quinoline-6-carboxylic acid]	> 300 °C
Cc1nn(-c2ccccn2)c2[nH]c3cc(C(=O)O)ccc3c(=O)c12 [Example 2-68, 3-Methyl-4-oxo-1-(2-pyridinyl)-4,9-dihydro-1H-pyrazolo[3,4-b]quinoline-7-carboxylic acid]	> 300 °C
Cc1nn(-c2ccccn2)c2ncc(C(=O)N3CCCCC3)c(O)c12 [Example 1-10, [4-Hydroxy-3-methyl-1-(2-pyridinyl)-1H-pyrazolo[3,4-b]pyridin-5-yl](1-piperidinyl)methanone]	264 to 266 °C
CSc1ccc2nc3c(c(C)nn3-c3ccccn3)c(Cl)c2c1 [Example 2-49, 4-Chloro-3-methyl-6-(methylsulfanyl)-1-(2-pyridinyl)-1H-pyrazolo[3,4-b]quinoline]	182 °C
Cc1nn(-c2ccccn2)c2[nH]c3cc(Cl)ccc3c(=O)c12 [Example 2-74, 7-Chloro-3-methyl-1-(2-pyridinyl)-1,9-dihydro-4H-pyrazolo[3,4-b]quinolin-4-one]	274 to 275 °C
CCOC(=O)c1nn(-c2ccccn2)c2nc3ccccc3c(Cl)c12 [Example 2-179, Ethyl 4-chloro-1-(2-pyridinyl)-1H-pyrazolo[3,4-b]quinoline-3-carboxylate]	164 to 166 °C
Clc1c2ccccc2nc2c1cnn2-c1ccccn1 [Example 2-157, 4-Chloro-1-(2-pyridinyl)-1H-pyrazolo[3,4-b]quinoline]	153 to 156 °C

The remaining lines, values ahead:

melting point	SMILES
184 to 187 °C	CCOc1cccc(-n2nc(C)c3c(N)c4cccc(C)c4nc32)n1 [Example 2-129, 3,8-Dimethyl-1-(6-ethoxy-2-pyridinyl)-1H-pyrazolo[3,4-b]quinolin-4-ylamine]
186 to 187 °C	COc1ccc2nc3c(c(C)nn3-c3ccccn3)c(Cl)c2c1 [Example 2-41, 4-Chloro-6-methoxy-3-methyl-1-(2-pyridinyl)-1H-pyrazolo[3,4-b]quinoline]
287 to 290 °C	Cc1nn(-c2ncccn2)c2nc3ccccc3c(N)c12 (as salt: hydrochloride) [Example 1-65, 3-Methyl-1-(2-pyrimidinyl)-1H-pyrazolo[3,4-b]quinolin-4-ylamine hydrochloride]
182 to 185 °C	Cc1cccnc1-n1nc(C)c2c(Cl)c3cccc(C)c3nc21 [Example 2-133, 4-Chloro-3,8-dimethyl-1-(3-methyl-2-pyridinyl)-1H-pyrazolo[3,4-b]quinoline]
121 to 123 °C	CCOc1c2ccccc2nc2c1c(C)nn2-c1ccccn1 [Example 2-16, 4-Ethoxy-3-methyl-1-(2-pyridinyl)-1H-pyrazolo[3,4-b]quinoline]
157 to 159 °C	Cc1nn(-c2ccccn2)c2nc3ccccc3c(Cl)c12 [Example 1-34, 4-Chloro-3-methyl-1-(2-pyridinyl)-1H-pyrazolo[3,4-b]quinoline]
157 to 159 °C	Cc1nn(-c2ccccn2)c2nc3ccccc3c(C)c12 [Example 2-101, 3,4-Dimethyl-1-(2-pyridinyl)-1H-pyrazolo[3,4-b]quinoline]
193 to 195 °C	Cc1cccnc1-n1nc(C)c2c(=O)c3cccc(C)c3[nH]c21 (as salt: salt) [Example 2-135, 3,8-Dimethyl-1-(3-methyl-2-pyridinyl)-1,9-dihydro-4H-pyrazolo[3,4-b]quinolin-4-one]
113 to 114 °C	Cc1nn(-c2ccccn2)c2nc3ccccc3c(SC(C)C)c12 [Example 2-25, 4-(Isopropylsulfanyl)-3-methyl-1-(2-pyridinyl)-1H-pyrazolo[3,4-b]quinoline]
154 °C	Cc1cccc(-n2nc(C)c3c(Cl)c4ccccc4nc32)n1 [Example 2-207, 4-Chloro-3-methyl-1-(6-methyl-2-pyridinyl)-1H-pyrazolo[3,4-b]quinoline]
273 to 276 °C	Cc1cccc2c(N)c3c(C)nn(-c4ccc5ccccc5n4)c3nc12 [Example 2-153, 3,8-Dimethyl-1-(2-quinolinyl)-1H-pyrazolo[3,4-b]quinolin-4-ylamine]
277 to 280 °C	COc1cc2nc3c(c(C)nn3-c3ccccn3)c(N)c2cc1OC.Cl
170 to 172 °C	Cc1cccc2c(Cl)c3c(C)nn(-c4ccccn4)c3nc12 [Example 2-35, 4-Chloro-3,8-dimethyl-1-(2-pyridinyl)-1H-pyrazolo[3,4-b]quinoline]
267 to 268 °C	COc1ccc2nc3c(c(C)nn3-c3ccccn3)c(N)c2c1 [Example 2-42, 6-Methoxy-3-methyl-1-(2-pyridinyl)-1H-pyrazolo[3,4-b]quinolin-4-ylamine]
134 to 137 °C	COc1cccc(-n2nc(C)c3c(N)c4cccc(C)c4nc32)n1 [Example 2-127, 3,8-Dimethyl-1-(6-methoxy-2-pyridinyl)-1H-pyrazolo[3,4-b]quinolin-4-ylamine]
